Where no end group is shown, it is not given here. TMR = tetramethyl-rhodamine
Experiments:
[1] = molecular target: T1, PTH1R (endogenous, Ocy454 cells) (Mus musculus, UniProt P41593); assay: intracellular cAMP in Ocy454 cells; format: cell-based, murine; details: IBMX (2mM), 30 min, room temperature, radioimmunoassay, repeated three times, Fig 3A, read-out: cAMP generation EC50
T1 construct: effects of distinct PTH1R ligands on endogenous receptors in Ocy454 cells; endogenous in cells; host or cells: Ocy454 cells (murine osteocyte-like line, subclone 6-9)
T1 sequence (P41593 27-591): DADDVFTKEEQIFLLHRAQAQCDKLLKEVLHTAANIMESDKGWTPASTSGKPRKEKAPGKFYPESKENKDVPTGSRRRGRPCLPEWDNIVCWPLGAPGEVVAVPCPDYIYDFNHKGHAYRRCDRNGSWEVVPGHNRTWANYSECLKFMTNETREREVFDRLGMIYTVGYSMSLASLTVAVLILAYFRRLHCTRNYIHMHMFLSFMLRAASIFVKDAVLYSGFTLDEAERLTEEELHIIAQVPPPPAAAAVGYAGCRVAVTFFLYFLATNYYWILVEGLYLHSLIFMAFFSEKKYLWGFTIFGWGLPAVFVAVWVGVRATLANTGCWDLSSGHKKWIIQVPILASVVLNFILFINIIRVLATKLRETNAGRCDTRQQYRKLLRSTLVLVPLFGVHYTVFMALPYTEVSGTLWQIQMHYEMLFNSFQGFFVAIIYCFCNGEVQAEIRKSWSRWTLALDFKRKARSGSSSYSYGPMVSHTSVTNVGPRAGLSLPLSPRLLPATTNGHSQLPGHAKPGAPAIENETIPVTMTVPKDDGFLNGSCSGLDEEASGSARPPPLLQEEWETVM
Method: Confluent Ocy454 cells in 96‐well plates were treated with a abaloparatide or a PTH analog at varying concentrations in a buffer of Hanks balanced salts solution (HBSS) containing 0.1% BSA and 3‐isobutyl‐1‐methylxanthine (IBMX) (2mM) for 30 min at room temperature. The buffer was then removed and the cells were lysed by placing the plate on a bed of powdered dry ice and adding 50 μL of 50mM HCl. After freezing and thawing, the lysates were diluted in water and then assessed for cAMP content by radioimmunoassay.
First, we assessed the effects of different PTH analogs on cAMP generation. For this, cells were treated with different concentrations of peptides in the presence of IBMX for 30 min at room temperature, followed by radioimmunoassay for cAMP.

[2] = test system: Gαq/phospholipase signaling; details: cited from earlier work
Method: (§1) First, we assessed the ability of distinct PTH1R peptide ligands (Fig. 1A ) to induce Gαq/PKC‐dependent increases in intracellular calcium in HEK293 cells stably expressing hPTH1R (GP‐2.3 cells). For this, cells were preloaded with the calcium indicator dye Fura2‐AM, and then treated with different PTH ligands at a concentration of 100nM. Intracellular calcium fluxes were measured by ratiometric fluorescence (excitation = 340 nm and 380 nm, emission = […]) over time.

[3] = test system: hPTH1R; assay: intracellular calcium (Fura2-AM) in HEK293/hPTH1R/glosensor (GP-2.3) cells; format: cell-based, human; details: 100nM; HEK293 cells stably expressing hPTH1R (GP-2.3); Fura2-AM ratiometric fluorescence 340/380 nm; 150 s after ligand addition; repeated two times
Method: Signaling via the iCa^++ pathway was assessed in stably transfected HEK‐HEK293/hPTH1R/glosensor (GP‐2.3) cells using the calcium‐sensitive fluorophore Fura2‐AM (Invitrogen, Life Tech. Grand Island, NY, USA).^( ^32 ^) Confluent cells in a black, 96‐well plate were preloaded with Fura2‐AM (5μM) for 45 min and then unloaded in buffer for 30 min. The plate was then processed using a Perkin Elmer Envision plate reader (Perkin Elmer, Waltham, MA, USA) to monitor fluorescence emission at a wavelength (λem) of 515 nm, upon sequential excitation at wavelengths (λex) of 340 nm and 380 nm. Data were recorded at 2‐s intervals for 10 s prior to, and for 150 s after ligand addition. The data at each time point were calculated as the ratio of the fluorescence signal obtained with excitation at 340 nm to that obtained with excitation at 380 nm.
as §1

[4] = test system: ratPTH1R; assay: internalization of TMR-labeled ligand-PTH1R complexes in GR-35 cells; format: cell-based, rat; details: TMR-labeled ligands (TMR at Lys13), 15 min, 21°C, HEK293 ratPTH1R/glosensor GR-35 cells, epifluorescent microscopy; 100nM (methods) or 10nM (results); repeated two times
Method: Internalization of ligand‐PTH1R complexes was assessed by fluorescent microscopy in stably transfected HEK293/ratPTH1R/glosensor (GR‐35) cells. The cells were cultured on glass coverslips in 24‐well plates to ~75% of confluency, and then treated with a tetramethylrhodamine (TMR)‐labeled PTH analog (100nM, TMR attached to Lys13) in HBSS containing 0.1% BSA (HB buffer) for 15 min at 21°C. The cells were then rinsed thrice with HB buffer, fixed with 4% formalin for 5 min, mounted with vector‐shield containing 4,6‐diamidino‐2‐phenylindole (DAPI) on a glass microscope slide, and viewed and digitally imaged using a Nikon epifluorescent microscope (Nikon, Tokyo, Japan) equipped with a charge‐coupled device (CCD) camera configured with SPOT imaging software (SPOT Imaging, Sterling Heights, MI, USA).
Next, we asked whether PTH analogs might have different effects on PTH1R activation‐dependent internalization. For this, HEK293 cells stably expressing a rat PTH1R cDNA (GR‐35 cells) were treated with tetramethyl‐rhodamine‐labeled versions of hPTH (1‐34), PTHrP, and abaloparatide (the TMR fluorophore is attached at the K13 position of each peptide). Cells were treated for 15 min at room temperature (21°C) at peptide doses of 10nM. After excess unbound peptide was washed away, cells were examined by epifluorescent microscopy.

| EC50 [1] | Compound | ligand-PTH1R internalization [4] | also measured |
| --- | --- | --- | --- |
| 0.562 nM | AVAEIQLMHQRAKWIQDARRRAFLHKLIAEIHTAEI [LA‐PTH] | – | – |
| 0.589 nM | CC[C@H](C)[C@H](NC(=O)[C@H](CO)NC(=O)[C@H](CCCCN)NC(=O)CNC(=O)[C@H](CCCCN)NC(=O)[C@H](CC(=O)O)NC(=O)[C@H](Cc1cnc[nH]1)NC(=O)[C@H](CC(C)C)NC(=O)[C@H](CC(C)C)NC(=O)[C@H](CCC(N)=O)NC(=O)[C@H](Cc1cnc[nH]1)NC(=O)[C@H](CCC(=O)O)NC(=O)[C@H](CO)NC(=O)[C@@H](NC(=O)[C@H](C)N)C(C)C)C(=O)N[C@@H](CCC(N)=O)C(=O)N[C@@H](CC(=O)O)C(=O)N[C@@H](CC(C)C)C(=O)N[C@@H](CCCNC(=N)N)C(=O)N[C@@H](CCCNC(=N)N)C(=O)N[C@@H](CCCNC(=N)N)C(=O)N[C@@H](CCC(=O)O)C(=O)N[C@@H](CC(C)C)C(=O)N[C@@H](CC(C)C)C(=O)N[C@@H](CCC(=O)O)C(=O)N[C@@H](CCCCN)C(=O)N[C@@H](CC(C)C)C(=O)N[C@@H](CC(C)C)C(=O)NC(C)(C)C(=O)N[C@@H](CCCCN)C(=O)N[C@@H](CC(C)C)C(=O)N[C@@H](Cc1cnc[nH]1)C(=O)N[C@H](C(=O)N[C@@H](C)C(N)=O)[C@@H](C)O [abaloparatide] | – | – |
| – | Trp1‐PTH (1‐34): a PTH analog defective at activating Gαq/phospholipase signaling (WVSEIQLMHNLGKHLNSMERVEWLRKKLQDVHNF; Parathyroid hormone; UniProt P01270 32-65, looked up, variant S1W) | – | activation of Gαq/phospholipase signaling [2]: defective at activating Gαq/phospholipase signaling; intracellular calcium release [3]: does not stimulate intracellular calcium |
| – | ^TMRPTHc35 (1‐35): Tetramethyl‐rhodamine (TMR)‐labeled version of PTH, TMR attached to Lys13 (SVSEIQLMHNLGK(TMR)HLNSMERVEWLRKKLQDVHNFV; UniProt P01270 32-66, looked up, fragment) | induced ligand‐PTH1R internalization | – |
| – | ^TMRPTHrP (1‐36): Tetramethyl‐rhodamine (TMR)‐labeled version of PTHrP, TMR attached to Lys13 | induced ligand‐PTH1R internalization | – |
